Values after ≈ are worked out from the molar mass of the structure shown.
Legend:
Test in all cases: antibacterial potency, serial dilution technique (MIC)
Format in all cases: cell-based
S. aureus = conditions: Staphylococcus aureus, read-out: Minimum Inhibitory Concentration
Co. liquefaciens = conditions: read-out: Minimum Inhibitory Concentration
He. Vaginalis = conditions: Gardnerella vaginalis, read-out: Minimum Inhibitory Concentration
St. agalactiae = conditions: Streptococcus agalactiae, read-out: Minimum Inhibitory Concentration
P. multocida = conditions: Pasteurella multocida, read-out: Minimum Inhibitory Concentration

O=C(CC(O)c1ccc(Cl)cc1)Sc1ccc(Cl)cc1 (stereo not drawn) [IV, S-(4-Chlorophenyl) 3-(4-Chlorophenyl)-3-hydroxypropanethioate]
MIC (S. aureus): 12.5 µg/mL (≈ 38.2 µM) | MIC (Co. liquefaciens): 6.25 µg/mL (≈ 19.1 µM) | MIC (He. Vaginalis): 3.1 µg/mL (≈ 9.47 µM) | MIC (St. agalactiae): 6.25 µg/mL (≈ 19.1 µM) | MIC (P. multocida): 6.25 µg/mL (≈ 19.1 µM)

O=C(CC(O)c1ccc(Cl)cc1Cl)Sc1ccc(Cl)cc1 (stereo not drawn) [V, S-(4-Chlorophenyl) 3-(2,4-Dichlorophenyl)-3-hydroxypropanethioate]
MIC (S. aureus): 6.25 µg/mL (≈ 17.3 µM) | MIC (Co. liquefaciens): 3.1 µg/mL (≈ 8.57 µM) | MIC (He. Vaginalis): 12.5 µg/mL (≈ 34.6 µM) | MIC (St. agalactiae): 12.5 µg/mL (≈ 34.6 µM) | MIC (P. multocida): 25 µg/mL (≈ 69.1 µM)

O=C(CC(O)c1ccccc1)Sc1ccc(Cl)cc1 (stereo not drawn) [I, S-(4-Chlorophenyl)-3-Hydroxy-3-phenylpropanethioate]
MIC (S. aureus): 6.25 µg/mL (≈ 21.3 µM) | MIC (Co. liquefaciens): 6.25 µg/mL (≈ 21.3 µM) | MIC (He. Vaginalis): 12.5 µg/mL (≈ 42.7 µM) | MIC (St. agalactiae): 3.13 µg/mL (≈ 10.7 µM) | MIC (P. multocida): 6.25 µg/mL (≈ 21.3 µM)

Cc1ccc(C(O)CC(=O)Sc2ccc(Cl)cc2)cc1Cl (stereo not drawn) [VII, S-(4-Chlorophenyl) 3-(3-Chloro-4-methylphenyl)-3-hydroxypropanethioate]
MIC (S. aureus): 12.5 µg/mL (≈ 36.6 µM) | MIC (Co. liquefaciens): 12.5 µg/mL (≈ 36.6 µM) | MIC (He. Vaginalis): 25 µg/mL (≈ 73.3 µM) | MIC (St. agalactiae): 12.5 µg/mL (≈ 36.6 µM) | MIC (P. multocida): 25 µg/mL (≈ 73.3 µM)

O=C(CC(O)c1ccc(Cl)c(Cl)c1)Sc1ccc(Cl)cc1 (stereo not drawn) [VI, S-(4-Chlorophenyl) 3-(3,4-Dichlorophenyl)-3-hydroxypropanethioate]
MIC (S. aureus): 25 µg/mL (≈ 69.1 µM) | MIC (Co. liquefaciens): 12.5 µg/mL (≈ 34.6 µM) | MIC (He. Vaginalis): 25 µg/mL (≈ 69.1 µM) | MIC (St. agalactiae): 12.5 µg/mL (≈ 34.6 µM) | MIC (P. multocida): 25 µg/mL (≈ 69.1 µM)

CCc1ccc(C(O)CC(=O)Sc2ccc(Cl)cc2)cc1 (stereo not drawn) [III, S-(4-Chlorophenyl) 3-(4-Ethylphenyl)-3-hydroxypropanethioate]
MIC (S. aureus): 6.25 µg/mL (≈ 19.5 µM) | MIC (Co. liquefaciens): 6.25 µg/mL (≈ 19.5 µM) | MIC (He. Vaginalis): 6.25 µg/mL (≈ 19.5 µM) | MIC (St. agalactiae): 3.13 µg/mL (≈ 9.76 µM) | MIC (P. multocida): 6.25 µg/mL (≈ 19.5 µM)

Cc1ccc(C(O)CC(=O)Sc2ccc(Cl)cc2)cc1 (stereo not drawn) [II, S-(4-Chlorophenyl) 3-Hydroxy-3-(4-methylphenyl)propanethioate]
MIC (S. aureus): 12.5 µg/mL (≈ 40.7 µM) | MIC (Co. liquefaciens): 12.5 µg/mL (≈ 40.7 µM) | MIC (He. Vaginalis): 3.1 µg/mL (≈ 10.1 µM) | MIC (St. agalactiae): 3.13 µg/mL (≈ 10.2 µM) | MIC (P. multocida): 3.13 µg/mL (≈ 10.2 µM)

— patent publication US4002660A, “S-(4-Chlorophenyl)-3-aryl-3-hydroxypropanethioates” (Morton-Norwich Products, Inc., priority 1976, dated 1977)
